Tests used:
Assay in all cases: biochemical
Parameters in all cases: KINOMEscan competition binding panel, per cent of control
Conditions in all cases: read-out: %Ctrl @ 2800nM
TGFBR2 = TGFBR2 (Homo sapiens, UniProt P37173)
Method in brief: (§1)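 Competition binding panel (KINOMEscan) across 450 human kinases and disease-relevant mutants, run to the contractor's standard protocol. Values are % control: (test signal − positive control signal)/(negative control signal − positive control signal) × 100, with lower values indicating stronger binding.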

[1] = molecular target: T1, RPS6KA4(Kin.Dom.2-C-terminal) (Homo sapiens, UniProt O75676)
T1 construct: Kin.Dom.2-C-terminal
Method in brief: as §1

AURKC = AURKC (Homo sapiens, UniProt Q9UQB9)
Method in brief: as §1

[2] = molecular target: T2, ABL1(F317L)-phosphorylated (Homo sapiens, UniProt P00519, F317L)
T2 construct: phosphorylated
Method in brief: as §1

CDKL5 = CDKL5 (Homo sapiens, UniProt O76039)
Method in brief: as §1

PRKCI = PRKCI (Homo sapiens, UniProt P41743)
Method in brief: as §1

CSNK1A1L = CSNK1A1L (Homo sapiens, UniProt Q8N752)
Method in brief: as §1

PDGFRA = PDGFRA (Homo sapiens, UniProt P16234)
Method in brief: as §1

LKB1 = molecular target: T3, LKB1 (Homo sapiens, UniProt Q15831)
T3 construct: gene STK11
Method in brief: as §1

TRKC = molecular target: T4, TRKC (Homo sapiens, UniProt Q16288)
T4 construct: gene NTRK3
Method in brief: as §1

CSNK1G1 = CSNK1G1 (Homo sapiens, UniProt Q9HCP0)
Method in brief: as §1

FLT3 = FLT3 (Homo sapiens, UniProt P36888)
Method in brief: as §1

CIT = CIT (Homo sapiens, UniProt O14578)
Method in brief: as §1

MRCKB = molecular target: T5, MRCKB (Homo sapiens, UniProt Q9Y5S2)
T5 construct: gene CDC42BPB
Method in brief: as §1

MST1R = MST1R (Homo sapiens, UniProt Q04912)
Method in brief: as §1

EGFR(L861Q) = EGFR(L861Q) (Homo sapiens, UniProt P00533, L861Q)
Method in brief: as §1

EPHA6 = EPHA6 (Homo sapiens, UniProt Q9UF33)
Method in brief: as §1

PCTK1 = molecular target: T6, PCTK1 (Homo sapiens, UniProt Q00536)
T6 construct: gene CDK16
Method in brief: as §1

MYLK = MYLK (Homo sapiens, UniProt Q15746)
Method in brief: as §1

RET = RET (Homo sapiens, UniProt P07949)
Method in brief: as §1

ALK(L1196M) = ALK(L1196M) (Homo sapiens, UniProt Q9UM73, L1196M)
Method in brief: as §1

SRC = SRC (Homo sapiens, UniProt P12931)
Method in brief: as §1

AMPK-alpha1 = molecular target: T7, AMPK-alpha1 (Homo sapiens, UniProt Q13131)
T7 construct: gene PRKAA1
Method in brief: as §1

AURKA = AURKA (Homo sapiens, UniProt O14965)
Method in brief: as §1

PIK3CB = PIK3CB (Homo sapiens, UniProt P42338)
Method in brief: as §1

ERK3 = molecular target: T8, ERK3 (Homo sapiens, UniProt Q16659)
T8 construct: gene MAPK6
Method in brief: as §1

CSNK1A1L, sequence (Q8N752 whole entry): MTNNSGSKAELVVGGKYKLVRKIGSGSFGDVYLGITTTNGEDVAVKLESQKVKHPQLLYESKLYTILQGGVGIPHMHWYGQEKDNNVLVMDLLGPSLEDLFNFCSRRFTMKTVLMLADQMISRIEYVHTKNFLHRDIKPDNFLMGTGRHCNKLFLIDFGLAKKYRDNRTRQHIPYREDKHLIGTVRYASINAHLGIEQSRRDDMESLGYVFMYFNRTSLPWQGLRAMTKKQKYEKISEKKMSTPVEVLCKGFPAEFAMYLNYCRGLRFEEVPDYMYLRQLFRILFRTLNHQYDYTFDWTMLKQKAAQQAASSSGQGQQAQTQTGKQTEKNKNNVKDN
EPHA6, sequence (Q9UF33 whole entry): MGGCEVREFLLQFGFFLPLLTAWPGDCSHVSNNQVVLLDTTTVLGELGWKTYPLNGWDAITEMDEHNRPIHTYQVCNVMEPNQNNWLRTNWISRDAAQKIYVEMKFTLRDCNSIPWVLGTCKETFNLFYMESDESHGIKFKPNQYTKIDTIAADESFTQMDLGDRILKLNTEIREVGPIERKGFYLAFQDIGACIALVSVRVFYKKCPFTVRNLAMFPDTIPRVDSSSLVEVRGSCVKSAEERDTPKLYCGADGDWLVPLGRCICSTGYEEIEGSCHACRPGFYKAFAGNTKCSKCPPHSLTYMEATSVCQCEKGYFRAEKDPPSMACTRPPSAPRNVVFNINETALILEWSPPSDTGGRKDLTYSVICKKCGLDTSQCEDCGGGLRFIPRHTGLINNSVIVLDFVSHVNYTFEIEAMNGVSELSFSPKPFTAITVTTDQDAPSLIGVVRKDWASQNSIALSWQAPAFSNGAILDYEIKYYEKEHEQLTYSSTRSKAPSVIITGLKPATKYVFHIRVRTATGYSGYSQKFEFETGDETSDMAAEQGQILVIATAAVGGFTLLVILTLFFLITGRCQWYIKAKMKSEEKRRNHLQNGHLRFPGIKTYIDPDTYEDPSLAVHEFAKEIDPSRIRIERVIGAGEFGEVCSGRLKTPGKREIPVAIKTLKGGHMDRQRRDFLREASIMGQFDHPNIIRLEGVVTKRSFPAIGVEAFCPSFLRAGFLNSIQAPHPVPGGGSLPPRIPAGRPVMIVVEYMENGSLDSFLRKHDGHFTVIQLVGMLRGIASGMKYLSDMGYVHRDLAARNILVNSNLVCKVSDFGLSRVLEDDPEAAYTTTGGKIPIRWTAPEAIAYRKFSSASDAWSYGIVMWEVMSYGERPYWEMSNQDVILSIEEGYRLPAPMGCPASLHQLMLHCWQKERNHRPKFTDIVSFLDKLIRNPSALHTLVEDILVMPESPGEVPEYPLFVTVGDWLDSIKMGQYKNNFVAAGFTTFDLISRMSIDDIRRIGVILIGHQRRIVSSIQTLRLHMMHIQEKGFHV
CIT, sequence (O14578 whole entry): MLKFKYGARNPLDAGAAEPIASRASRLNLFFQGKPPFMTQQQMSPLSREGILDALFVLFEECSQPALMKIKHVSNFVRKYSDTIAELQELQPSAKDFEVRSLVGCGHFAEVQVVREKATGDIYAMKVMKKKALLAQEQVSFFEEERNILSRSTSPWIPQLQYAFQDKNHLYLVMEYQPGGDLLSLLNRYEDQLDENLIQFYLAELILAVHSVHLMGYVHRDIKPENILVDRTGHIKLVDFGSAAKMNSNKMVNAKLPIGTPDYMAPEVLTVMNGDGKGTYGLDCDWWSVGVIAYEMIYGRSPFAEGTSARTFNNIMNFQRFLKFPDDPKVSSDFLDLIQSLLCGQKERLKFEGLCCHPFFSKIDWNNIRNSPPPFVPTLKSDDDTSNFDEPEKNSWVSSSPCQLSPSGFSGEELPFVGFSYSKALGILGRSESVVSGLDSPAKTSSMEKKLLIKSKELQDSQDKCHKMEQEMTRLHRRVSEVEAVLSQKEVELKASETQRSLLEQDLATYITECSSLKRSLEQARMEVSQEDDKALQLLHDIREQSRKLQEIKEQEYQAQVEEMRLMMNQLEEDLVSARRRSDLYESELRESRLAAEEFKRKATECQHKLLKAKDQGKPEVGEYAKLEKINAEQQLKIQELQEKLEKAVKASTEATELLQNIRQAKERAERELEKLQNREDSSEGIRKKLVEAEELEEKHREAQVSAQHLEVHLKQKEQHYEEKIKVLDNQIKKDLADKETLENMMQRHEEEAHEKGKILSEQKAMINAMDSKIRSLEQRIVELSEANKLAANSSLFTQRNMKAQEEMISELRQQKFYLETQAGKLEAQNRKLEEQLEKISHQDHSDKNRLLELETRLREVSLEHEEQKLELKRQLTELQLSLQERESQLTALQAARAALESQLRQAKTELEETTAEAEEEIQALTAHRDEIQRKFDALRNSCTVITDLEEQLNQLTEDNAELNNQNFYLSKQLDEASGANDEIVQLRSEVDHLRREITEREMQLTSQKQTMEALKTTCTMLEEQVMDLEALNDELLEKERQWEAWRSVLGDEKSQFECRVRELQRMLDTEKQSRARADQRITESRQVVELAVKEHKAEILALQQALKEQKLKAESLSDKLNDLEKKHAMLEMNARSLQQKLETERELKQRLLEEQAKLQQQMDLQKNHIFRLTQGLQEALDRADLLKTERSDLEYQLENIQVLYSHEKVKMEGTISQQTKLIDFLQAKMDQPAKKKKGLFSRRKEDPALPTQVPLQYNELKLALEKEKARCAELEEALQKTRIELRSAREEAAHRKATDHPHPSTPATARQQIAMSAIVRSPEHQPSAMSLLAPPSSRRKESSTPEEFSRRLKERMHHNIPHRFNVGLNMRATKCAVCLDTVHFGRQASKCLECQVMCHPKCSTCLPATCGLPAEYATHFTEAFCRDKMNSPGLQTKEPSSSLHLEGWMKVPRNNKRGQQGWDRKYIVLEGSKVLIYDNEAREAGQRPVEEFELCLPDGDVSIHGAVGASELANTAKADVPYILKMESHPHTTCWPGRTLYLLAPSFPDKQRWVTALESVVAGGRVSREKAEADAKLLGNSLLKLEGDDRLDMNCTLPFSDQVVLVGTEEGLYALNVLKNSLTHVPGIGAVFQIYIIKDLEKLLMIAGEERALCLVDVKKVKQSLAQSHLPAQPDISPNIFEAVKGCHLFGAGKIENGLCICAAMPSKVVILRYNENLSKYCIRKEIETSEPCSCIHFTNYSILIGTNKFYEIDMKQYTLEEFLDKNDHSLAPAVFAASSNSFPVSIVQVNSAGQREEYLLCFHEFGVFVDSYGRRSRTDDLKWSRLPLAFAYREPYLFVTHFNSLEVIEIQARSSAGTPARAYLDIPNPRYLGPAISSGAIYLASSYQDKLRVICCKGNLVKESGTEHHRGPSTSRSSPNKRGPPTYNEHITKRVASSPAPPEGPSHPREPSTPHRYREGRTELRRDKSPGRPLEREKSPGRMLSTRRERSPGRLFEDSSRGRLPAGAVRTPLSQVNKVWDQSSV
EGFR(L861Q), sequence (P00533 whole entry L861Q): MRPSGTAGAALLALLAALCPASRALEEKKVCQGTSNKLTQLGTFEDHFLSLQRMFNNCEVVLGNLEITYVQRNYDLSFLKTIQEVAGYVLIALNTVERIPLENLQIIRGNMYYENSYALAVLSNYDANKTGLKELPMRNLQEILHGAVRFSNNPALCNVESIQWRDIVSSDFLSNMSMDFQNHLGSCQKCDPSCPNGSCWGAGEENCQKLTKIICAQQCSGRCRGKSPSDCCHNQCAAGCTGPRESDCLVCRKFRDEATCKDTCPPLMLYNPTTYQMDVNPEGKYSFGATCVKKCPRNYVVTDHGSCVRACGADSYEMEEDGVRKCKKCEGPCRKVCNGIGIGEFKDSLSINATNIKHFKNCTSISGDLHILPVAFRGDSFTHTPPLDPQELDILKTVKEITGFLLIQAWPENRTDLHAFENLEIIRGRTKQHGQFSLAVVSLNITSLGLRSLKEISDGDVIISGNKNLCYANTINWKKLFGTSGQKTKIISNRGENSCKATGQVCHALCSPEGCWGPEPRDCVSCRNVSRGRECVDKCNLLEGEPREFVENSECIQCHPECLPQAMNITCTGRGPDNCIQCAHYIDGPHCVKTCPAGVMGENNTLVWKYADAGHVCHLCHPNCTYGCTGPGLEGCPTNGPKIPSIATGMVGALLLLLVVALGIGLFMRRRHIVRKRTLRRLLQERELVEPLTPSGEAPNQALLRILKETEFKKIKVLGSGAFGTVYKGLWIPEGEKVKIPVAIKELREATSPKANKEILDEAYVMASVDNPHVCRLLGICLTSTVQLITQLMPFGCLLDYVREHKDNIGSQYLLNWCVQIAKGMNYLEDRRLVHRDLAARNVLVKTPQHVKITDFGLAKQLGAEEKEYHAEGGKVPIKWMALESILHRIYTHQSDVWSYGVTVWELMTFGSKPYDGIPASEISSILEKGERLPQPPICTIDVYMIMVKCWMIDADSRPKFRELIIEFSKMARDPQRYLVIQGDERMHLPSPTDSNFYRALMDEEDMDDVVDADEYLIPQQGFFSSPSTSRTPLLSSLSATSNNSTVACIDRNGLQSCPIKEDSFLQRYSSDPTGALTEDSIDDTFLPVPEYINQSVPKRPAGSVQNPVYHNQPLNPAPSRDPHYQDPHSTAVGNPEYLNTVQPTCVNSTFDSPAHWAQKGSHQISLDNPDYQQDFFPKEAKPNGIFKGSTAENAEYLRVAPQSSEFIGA
T6 sequence (Q00536 whole entry): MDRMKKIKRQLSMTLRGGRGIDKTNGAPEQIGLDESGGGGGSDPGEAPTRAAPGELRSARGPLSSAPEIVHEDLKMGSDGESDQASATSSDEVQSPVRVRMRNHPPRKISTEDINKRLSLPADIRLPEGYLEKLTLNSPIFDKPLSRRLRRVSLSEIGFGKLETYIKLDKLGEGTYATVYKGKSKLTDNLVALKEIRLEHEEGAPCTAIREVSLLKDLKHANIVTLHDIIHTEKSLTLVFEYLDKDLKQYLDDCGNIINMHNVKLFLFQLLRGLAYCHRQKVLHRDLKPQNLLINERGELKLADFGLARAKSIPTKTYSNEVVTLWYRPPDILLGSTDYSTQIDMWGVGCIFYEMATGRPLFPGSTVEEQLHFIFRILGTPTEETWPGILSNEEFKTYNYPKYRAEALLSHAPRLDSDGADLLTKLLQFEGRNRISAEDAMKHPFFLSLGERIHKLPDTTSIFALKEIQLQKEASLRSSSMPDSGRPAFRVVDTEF

[O-][S@@+](Cc1cncs1)C(c1ccccc1)c1ccccc1 [S-CE-123, (S)-5-((Benzhydrylsulfinyl)Methyl)Thiazole]
remaining binding at 2.8 µM (TGFBR2): 88%
remaining binding at 2.8 µM [1]: 99%
remaining binding at 2.8 µM (AURKC): 100%
remaining binding at 2.8 µM [2]: 100%
remaining binding at 2.8 µM (CDKL5): 97%
remaining binding at 2.8 µM (PRKCI): 100%
remaining binding at 2.8 µM (CSNK1A1L): 100%
remaining binding at 2.8 µM (PDGFRA): 98%
remaining binding at 2.8 µM (LKB1): 100%
remaining binding at 2.8 µM (TRKC): 100%
remaining binding at 2.8 µM (CSNK1G1): 96%
remaining binding at 2.8 µM (FLT3): 96%
remaining binding at 2.8 µM (CIT): 74%
remaining binding at 2.8 µM (MRCKB): 98%
remaining binding at 2.8 µM (MST1R): 93%
remaining binding at 2.8 µM (EGFR(L861Q)): 98%
remaining binding at 2.8 µM (EPHA6): 100%
remaining binding at 2.8 µM (PCTK1): 97%
remaining binding at 2.8 µM (MYLK): 96%
remaining binding at 2.8 µM (RET): 96%
remaining binding at 2.8 µM (ALK(L1196M)): 100%
remaining binding at 2.8 µM (SRC): 100%
remaining binding at 2.8 µM (AMPK-alpha1): 92%
remaining binding at 2.8 µM (AURKA): 91%
remaining binding at 2.8 µM (PIK3CB): 93%
remaining binding at 2.8 µM (ERK3): 93%

— publication PMC10046369, “Low-Affinity/High-Selectivity Dopamine Transport Inhibition Sufficient to Rescue Cognitive Functions in the Aging Rat” (Biomolecules, 2023)
